Data taken from EP0022969A1, “Antimycotic compositions containing azolylalkenols and their preparation” (BAYER AG, priority 1979, dated 1981).

System: Trichophyton mentagrophytes
Experiment: Antimicrobial in vivo activity (local) in experimental guinea pig trichophytosis
Parameters: species or system Meerschweinchen der Rasse Pirbright-white
Details: guinea pigs infected with Trichophyton mentagrophytes; 1% solution in DMSO:glycerol 1:4, local, once daily from day 3 p.i.; meaning only slight redness and isolated scales, or no signs of infection
Source text: Weiße Meerschweinchen der Rasse Pirbright-white wurden auf dem geschorenen, nicht skarifizierten Rücken mit einer Mikro- und Makrokonidien-Suspension von Trichophyton mentagrophytes infiziert.
Die infizierten Tiere wurden, beginnend mit dem 3.Tag p.i., 1 x täglich mit 1%-iger Lösung der erfindungsgemäßen Präparate (in Dimethylsulfoxid:Glycerin=1:4) lokal behandelt.
Bei unbehandelten Tieren entwickelt sich innerhalb von 12 Tagen p.i. das typische Bild einer Dermatophytose mit Rötung, Schuppung und Haarausfall bis zum totalen Integument-Defekt an der Infektionsstelle.

With `CC(C)(C)C(O)C(=Cn1ccnc1)Oc1ccc(F)cc1` (stereo not drawn) [Beispiel 1] as the compound, how does the “Wirkung (Infektionszeichen)” value read?
Its value is “gute bis sehr gute Wirkung”.

For `CC(C)(C)C(O)C(=Cn1ccnc1)Oc1ccc(F)cc1Cl` (stereo not drawn) [Beispiel 9], which “Wirkung (Infektionszeichen)” value is on record?
The value was “gute bis sehr gute Wirkung”.

How did the “Wirkung (Infektionszeichen)” value turn out when `CC(C)(C)C(O)C(=Cn1ccnc1)Oc1ccccc1Cl` (stereo not drawn) [Beispiel 5] was run?
Its value is “gute bis sehr gute Wirkung”.
